# From ChEMBL document CHEMBL3797107, “Discovery of 5-(methylthio)pyrimidine derivatives as L858R/T790M mutant selective epidermal growth factor receptor (EGFR) inhibitors” (Bioorg Med Chem, 2016)
# pIC50: −log10 of the molar value. Activity calls are given as the source filed them. The calls are words filed in the database; no cut-off is given here.
# Experiments:
# [1] = target: T1, Epidermal growth factor receptor (Homo sapiens, UniProt P00533); assay: Inhibition of wild-type EGFR (unknown origin) expressed in baculovirus expression system after 1 hr by ELISA
# T1 sequence (P00533 whole entry): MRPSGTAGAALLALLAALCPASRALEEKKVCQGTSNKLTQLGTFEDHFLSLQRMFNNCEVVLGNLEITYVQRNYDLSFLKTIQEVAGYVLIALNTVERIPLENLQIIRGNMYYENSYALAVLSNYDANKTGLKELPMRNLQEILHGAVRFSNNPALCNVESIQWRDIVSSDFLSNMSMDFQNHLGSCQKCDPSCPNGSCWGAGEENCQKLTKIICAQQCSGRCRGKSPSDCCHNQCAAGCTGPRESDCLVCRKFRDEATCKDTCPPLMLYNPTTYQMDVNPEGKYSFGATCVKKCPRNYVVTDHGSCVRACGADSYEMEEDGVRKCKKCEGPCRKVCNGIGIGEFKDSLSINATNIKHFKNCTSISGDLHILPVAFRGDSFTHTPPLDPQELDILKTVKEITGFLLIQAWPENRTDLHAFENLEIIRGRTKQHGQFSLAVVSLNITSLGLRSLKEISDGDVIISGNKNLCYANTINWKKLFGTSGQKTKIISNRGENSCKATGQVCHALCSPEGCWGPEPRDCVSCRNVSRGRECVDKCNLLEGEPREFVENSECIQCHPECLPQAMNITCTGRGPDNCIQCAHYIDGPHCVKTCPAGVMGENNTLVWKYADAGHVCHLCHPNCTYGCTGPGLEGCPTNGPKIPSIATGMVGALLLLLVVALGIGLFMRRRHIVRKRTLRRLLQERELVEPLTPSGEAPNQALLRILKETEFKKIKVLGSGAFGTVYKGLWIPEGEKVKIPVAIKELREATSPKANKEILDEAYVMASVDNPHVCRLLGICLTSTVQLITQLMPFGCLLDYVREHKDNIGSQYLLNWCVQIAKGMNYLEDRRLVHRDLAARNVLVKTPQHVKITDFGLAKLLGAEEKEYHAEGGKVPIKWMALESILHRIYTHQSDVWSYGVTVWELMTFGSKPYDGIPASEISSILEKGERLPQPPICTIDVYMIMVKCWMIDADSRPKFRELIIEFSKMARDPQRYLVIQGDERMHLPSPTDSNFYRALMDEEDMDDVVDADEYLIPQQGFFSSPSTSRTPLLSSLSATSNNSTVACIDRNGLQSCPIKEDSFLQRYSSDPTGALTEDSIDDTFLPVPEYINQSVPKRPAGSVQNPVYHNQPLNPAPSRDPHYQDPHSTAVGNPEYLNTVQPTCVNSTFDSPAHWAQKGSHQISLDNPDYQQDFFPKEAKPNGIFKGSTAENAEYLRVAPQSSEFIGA
# [2] = target: Epidermal growth factor receptor (Homo sapiens, UniProt P00533, L858R/T790M); assay: Inhibition of EGFR T790M/L858R mutant (unknown origin) expressed in baculovirus expression system after 1 hr by ELISA
# Chain of Epidermal growth factor receptor (Homo sapiens, UniProt P00533, L858R/T790M) (P00533 25-1210 T790M/L858R limits assumed): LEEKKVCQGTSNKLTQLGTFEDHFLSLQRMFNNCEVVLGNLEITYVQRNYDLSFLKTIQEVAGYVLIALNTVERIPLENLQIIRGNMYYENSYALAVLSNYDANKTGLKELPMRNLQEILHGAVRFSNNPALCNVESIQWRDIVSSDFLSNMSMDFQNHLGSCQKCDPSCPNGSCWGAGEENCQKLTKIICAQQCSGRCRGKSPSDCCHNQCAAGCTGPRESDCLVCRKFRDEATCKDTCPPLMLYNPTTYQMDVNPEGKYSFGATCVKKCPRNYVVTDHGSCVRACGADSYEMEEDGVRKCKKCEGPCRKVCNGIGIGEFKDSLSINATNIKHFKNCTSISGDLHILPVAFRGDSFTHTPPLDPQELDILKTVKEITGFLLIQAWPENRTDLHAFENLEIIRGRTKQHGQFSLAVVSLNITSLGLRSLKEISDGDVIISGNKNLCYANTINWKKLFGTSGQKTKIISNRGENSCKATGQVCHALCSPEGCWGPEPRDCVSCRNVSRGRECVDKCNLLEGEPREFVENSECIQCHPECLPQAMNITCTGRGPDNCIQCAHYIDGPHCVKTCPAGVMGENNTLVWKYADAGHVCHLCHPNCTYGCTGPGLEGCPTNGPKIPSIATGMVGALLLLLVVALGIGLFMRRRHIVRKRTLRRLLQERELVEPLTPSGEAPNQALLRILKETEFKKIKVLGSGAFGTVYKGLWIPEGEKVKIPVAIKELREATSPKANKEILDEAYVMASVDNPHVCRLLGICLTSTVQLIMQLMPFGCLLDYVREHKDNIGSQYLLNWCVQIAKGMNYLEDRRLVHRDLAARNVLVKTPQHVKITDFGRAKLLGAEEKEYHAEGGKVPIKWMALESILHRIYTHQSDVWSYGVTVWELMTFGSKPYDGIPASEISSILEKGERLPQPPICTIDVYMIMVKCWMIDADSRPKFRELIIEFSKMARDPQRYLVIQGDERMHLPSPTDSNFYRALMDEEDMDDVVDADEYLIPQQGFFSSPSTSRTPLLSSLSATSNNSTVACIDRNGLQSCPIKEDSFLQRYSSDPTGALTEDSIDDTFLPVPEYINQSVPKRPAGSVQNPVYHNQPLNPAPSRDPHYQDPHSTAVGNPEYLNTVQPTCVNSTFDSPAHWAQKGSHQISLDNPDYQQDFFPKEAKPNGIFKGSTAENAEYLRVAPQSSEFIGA
# A-431 = assay: Antiproliferative activity against human A431 cells overexpressing wild-type EGFR after 72 hrs by SRB assay; type: functional, cell-based; settings: A-431, 72 h
# NCI-H1975 [3] = assay: Antiproliferative activity against human NCI-H1975 cells expressing EGFR T790M/L858R mutant after 72 hrs by SRB assay; type: functional, cell-based; settings: NCI-H1975, 72 h
# [4] = system: Epidermal growth factor receptor (Homo sapiens), P00533 [L858R,T790M]; assay: Inhibition of EGFR T790M/L858R mutant phosphorylation in EGF-stimulated human NCI-H1975 cells preincubated for 2 hrs followed by EGF addition for 10 mins by western blot analysis; type: cell-based
# Chain of Epidermal growth factor receptor (Homo sapiens), P00533 [L858R,T790M] (P00533 whole entry T790M/L858R, looked up): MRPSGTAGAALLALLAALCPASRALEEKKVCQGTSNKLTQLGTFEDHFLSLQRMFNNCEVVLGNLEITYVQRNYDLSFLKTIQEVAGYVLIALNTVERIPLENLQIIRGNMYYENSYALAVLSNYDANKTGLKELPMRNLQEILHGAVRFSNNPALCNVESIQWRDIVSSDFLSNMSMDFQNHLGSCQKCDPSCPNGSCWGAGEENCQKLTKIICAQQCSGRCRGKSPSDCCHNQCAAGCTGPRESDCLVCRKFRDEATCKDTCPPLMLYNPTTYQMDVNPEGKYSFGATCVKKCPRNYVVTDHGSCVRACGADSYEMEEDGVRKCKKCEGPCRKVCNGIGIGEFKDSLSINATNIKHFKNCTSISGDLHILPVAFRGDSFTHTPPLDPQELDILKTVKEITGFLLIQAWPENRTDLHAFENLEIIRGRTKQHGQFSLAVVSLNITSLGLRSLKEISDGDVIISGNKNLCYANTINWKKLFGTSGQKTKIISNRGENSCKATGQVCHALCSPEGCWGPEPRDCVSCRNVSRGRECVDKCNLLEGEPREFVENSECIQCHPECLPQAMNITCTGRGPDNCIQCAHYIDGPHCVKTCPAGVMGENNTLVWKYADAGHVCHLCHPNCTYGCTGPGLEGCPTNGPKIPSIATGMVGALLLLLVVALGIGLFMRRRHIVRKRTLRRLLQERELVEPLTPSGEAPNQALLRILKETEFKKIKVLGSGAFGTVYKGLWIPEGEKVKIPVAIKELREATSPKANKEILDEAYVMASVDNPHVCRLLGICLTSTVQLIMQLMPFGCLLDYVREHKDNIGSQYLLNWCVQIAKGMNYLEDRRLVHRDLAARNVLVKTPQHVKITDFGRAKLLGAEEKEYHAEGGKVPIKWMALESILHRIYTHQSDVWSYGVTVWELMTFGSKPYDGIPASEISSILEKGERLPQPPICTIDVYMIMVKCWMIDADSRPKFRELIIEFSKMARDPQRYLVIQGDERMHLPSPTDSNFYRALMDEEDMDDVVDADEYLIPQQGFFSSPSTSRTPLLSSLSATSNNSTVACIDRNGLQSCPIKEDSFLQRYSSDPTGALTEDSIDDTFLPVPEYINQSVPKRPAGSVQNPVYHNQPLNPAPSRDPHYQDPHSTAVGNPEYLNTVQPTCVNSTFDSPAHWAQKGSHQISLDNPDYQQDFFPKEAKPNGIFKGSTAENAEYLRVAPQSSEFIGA
# [5] = system: Epidermal growth factor receptor (Homo sapiens), P00533 [L858R,T790M]; assay: Inhibition of EGFR T790M/L858R mutant in EGF-stimulated human NCI-H1975 cells assessed as decrease in phosphorylated Akt level preincubated for 2 hrs followed by EGF addition for 10 mins by western blot analysis; type: cell-based
# [6] = system: Epidermal growth factor receptor (Homo sapiens), P00533 [L858R,T790M]; assay: Inhibition of EGFR T790M/L858R mutant in EGF-stimulated human NCI-H1975 cells assessed as decrease in phosphorylated Erk level preincubated for 2 hrs followed by EGF addition for 10 mins by western blot analysis; type: cell-based
# [7] = target: T1, Epidermal growth factor receptor; assay: Inhibition of wild-type EGFR phosphorylation in EGF-stimulated human A431 cells preincubated for 2 hrs followed by EGF addition for 10 mins by western blot analysis; type: cell-based; settings: A-431
# [8] = target: T1, Epidermal growth factor receptor; assay: Inhibition of wild-type EGFR in EGF-stimulated human A431 cells assessed as decrease in phosphorylated Akt level preincubated for 2 hrs followed by EGF addition for 10 mins by western blot analysis; type: cell-based; settings: A-431
# [9] = target: T1, Epidermal growth factor receptor; assay: Inhibition of wild-type EGFR in EGF-stimulated human A431 cells assessed as decrease in phosphorylated Erk level preincubated for 2 hrs followed by EGF addition for 10 mins by western blot analysis; type: cell-based; settings: A-431
# [10] = system: Epidermal growth factor receptor (Homo sapiens), P00533 [L858R,T790M]; assay: Inhibition of EGFR T790M/L858R mutant in EGF-stimulated human NCI-H1975 cells assessed as decrease in phosphorylated Akt level at 0.001 to 1 uM preincubated for 2 hrs followed by EGF addition for 10 mins by western blot analysis; type: cell-based
# [11] = system: Epidermal growth factor receptor (Homo sapiens), P00533 [L858R,T790M]; assay: Inhibition of EGFR T790M/L858R mutant in EGF-stimulated human NCI-H1975 cells assessed as decrease in phosphorylated Erk level at 0.001 to 1 uM preincubated for 2 hrs followed by EGF addition for 10 mins by western blot analysis; type: cell-based
# NCI-H1975 [12] = assay: Effect on total EGFR level in human NCI-H1975 cells at 0.001 to 1 uM preincubated for 2 hrs followed by EGF addition for 10 mins by western blot analysis; type: ADME, cell-based; settings: nci-h1975, 10 min
# NCI-H1975 [13] = assay: Effect on total Akt level in human NCI-H1975 cells at 0.001 to 1 uM preincubated for 2 hrs followed by EGF addition for 10 mins by western blot analysis; type: ADME, cell-based; settings: nci-h1975, 10 min
# NCI-H1975 [14] = assay: Effect on total Erk level in human NCI-H1975 cells at 0.001 to 1 uM preincubated for 2 hrs followed by EGF addition for 10 mins by western blot analysis; type: ADME, cell-based; settings: nci-h1975, 10 min
# NCI-H1975 [15] = assay: Effect on total tubulin level in human NCI-H1975 cells at 0.001 to 1 uM preincubated for 2 hrs followed by EGF addition for 10 mins by western blot analysis; type: ADME, cell-based; settings: nci-h1975, 10 min
SMILES,pIC50 [1],pIC50 [2],pIC50 (A-431),pIC50 (NCI-H1975 [3]),inhibition [4],inhibition [5],inhibition [6],inhibition [7],inhibition [8],inhibition [9],inhibition [10],inhibition [11],Activity (NCI-H1975 [12]),Activity (NCI-H1975 [13]),Activity (NCI-H1975 [14]),Activity (NCI-H1975 [15])
C=CC(=O)Nc1cccc(Oc2nc(Nc3ccc(N4CCN(S(C)(=O)=O)CC4)cc3OC)ncc2SC)c1,6.14,8.14,< 5.00,5.77,–,–,–,–,–,–,–,–,–,–,–,–
C=CC(=O)Nc1cccc(Oc2nc(Nc3ccc(N4CCCN(C(C)=O)CC4)cc3OC)ncc2SC)c1,6.41,8.74,5.37,6.24,–,–,–,–,–,–,–,–,–,–,–,–
C=CC(=O)Nc1cccc(Oc2nc(Nc3ccc(N4CCN(C(C)=O)CC4)cc3OC(F)F)ncc2SC)c1,7.41,8.55,5.33,7.70,Dose-dependent effect,Dose-dependent effect,Dose-dependent effect,Dose-dependent effect,Dose-dependent effect,Dose-dependent effect,–,–,–,–,–,–
C=CC(=O)Nc1cccc(Oc2nc(Nc3ccc(N4CCN(C(C)=O)CC4)cc3OC)ncc2SC)c1,7.06,9.15,5.34,6.71,–,–,–,–,–,–,–,–,–,–,–,–
C=CC(=O)Nc1cccc(Oc2nc(Nc3ccc(N4CCN(C(=O)C(C)C)CC4)cc3OC)ncc2SC)c1,6.76,8.44,5.70,6.70,–,–,–,–,–,–,–,–,–,–,–,–
C=CC(=O)Nc1cccc(Oc2nc(Nc3ccc(N4CCN(C(=O)CC)CC4)cc3OC)ncc2SC)c1,6.81,8.24,5.36,6.83,Dose-dependent effect,Dose-dependent effect,Dose-dependent effect,Dose-dependent effect,Dose-dependent effect,Dose-dependent effect,–,–,–,–,–,–
C=CC(=O)Nc1cccc(Oc2nc(Nc3ccc(N4CCN(C(=O)C(F)(F)F)CC4)cc3OC)ncc2SC)c1,6.61,8.36,5.92,6.39,–,–,–,–,–,–,–,–,–,–,–,–
C=CC(=O)Nc1cccc(Oc2nc(Nc3ccc(N4CCN(C)CC4)cc3OC)ncc2SC)c1,6.57,9.40,5.41,6.78,Dose-dependent effect,–,–,–,–,–,Active,Active,Non-toxic,Non-toxic,Non-toxic,Non-toxic
C=CC(=O)Nc1cccc(Oc2nc(Nc3ccc(N4CCN(C(C)=O)CC4)cc3OC)ncc2C(F)(F)F)c1,–,–,5.72,7.06,Dose-dependent effect,–,–,–,–,–,Active,Active,–,–,–,–
C=CC(=O)Nc1cccc(Oc2nc(Nc3ccc(N4CCN(C(=O)CC)CC4)cc3OC(F)F)ncc2SC)c1,7.33,8.43,5.31,7.06,Dose-dependent effect,Dose-dependent effect,Dose-dependent effect,Dose-dependent effect,Dose-dependent effect,Dose-dependent effect,–,–,–,–,–,–
C=CC(=O)Nc1cccc(Oc2nc(Nc3ccc(N4CCN(C(=O)C(C)(C)C)CC4)cc3OC)ncc2SC)c1,6.39,8.02,5.04,6.24,–,–,–,–,–,–,–,–,–,–,–,–
C=CC(=O)Nc1cccc(Oc2nc(Nc3ccc(N4CCN(C)CC4)cc3OC)ncc2Cl)c1,–,–,–,7.02,–,–,–,–,–,–,–,–,–,–,–,–
